Data set [1] can be described thus: Glutathione (GSH) stability assay (HPLC). Particulars: glutathione (GSH, 5 mM) in MeCN/PBS buffer.
Description: The reaction temperature was chosen to be 40 °C.
Glutathione (GSH) Stability Assay
• 0 min: 40% MeOH, 60% phosphate buffer pH 2.3;
• 20 min: 85% MeOH, 15% phosphate buffer pH 2.3;
• 9 min: 95% MeOH, 5% phosphate buffer pH 2.3;
• 10 min: 95% MeOH, 5% phosphate buffer pH 2.3;
The target in a further data set is T1, MAPK13 (Homo sapiens, UniProt O15264).
T1 construct: purchased in-house DSF (thermal shift) panel per Fedorov et al
Briefly: DSF thermal shift assay. It is filed as binding. Particulars: read-out: ΔTm. The method, then: (§1) Differences in the melting temperature (ΔTm) were measured as described by Fedorov et al.. Purified proteins were buffered in 25 mM HEPES (pH 7.5), 500 mM NaCl and were assayed in a 384-well plate with a final protein concentration of 2 μM in 10 μL assay volume. Inhibitors were added to a final concentration of 10 μM using an ECHO 550 acoustic dispenser (Labcyte, San José, CA, USA). As a fluorescence probe, SYPRO-Orange (Molecular Probes, Eugene, OR, USA) was added in a 1:5000 dilution. Filters for excitation and emission were set to 465 nm and 590 nm, respectively. The temperature was increased from 25 °C with 3 °C/min to a final temperature of 95 °C, while scanning, using the QuantStudio5 (Applied Biosystems, Waltham, MA, USA). Data were analyzed through Boltzmann equation in the Protein Thermal Shift software (Applied Biosystems, Waltham, MA, USA). Samples were measured in technical duplicates.

For a further data set, the target named is T2, STK3 (Homo sapiens, UniProt Q13188).
T2 construct: purchased in-house DSF (thermal shift) panel per Fedorov et al
T2 sequence (Q13188 whole entry): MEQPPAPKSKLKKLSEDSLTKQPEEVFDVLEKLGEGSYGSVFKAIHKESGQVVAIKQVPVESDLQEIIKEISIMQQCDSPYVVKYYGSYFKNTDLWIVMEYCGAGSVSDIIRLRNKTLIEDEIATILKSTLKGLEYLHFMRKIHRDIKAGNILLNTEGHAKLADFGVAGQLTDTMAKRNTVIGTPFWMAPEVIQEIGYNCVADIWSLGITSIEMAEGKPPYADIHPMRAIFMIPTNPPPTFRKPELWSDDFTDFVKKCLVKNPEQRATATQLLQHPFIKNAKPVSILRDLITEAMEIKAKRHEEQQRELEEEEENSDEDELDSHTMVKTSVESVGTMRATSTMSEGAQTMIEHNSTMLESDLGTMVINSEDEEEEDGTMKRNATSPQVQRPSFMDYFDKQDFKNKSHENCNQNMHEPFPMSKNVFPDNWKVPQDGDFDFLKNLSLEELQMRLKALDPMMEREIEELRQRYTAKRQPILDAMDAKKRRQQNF
The data set is described as follows: DSF thermal shift assay. The format is binding. Particulars: read-out: ΔTm. The method, then:
as §1

Another data set addresses T3, PLK4 (Homo sapiens, UniProt O00444).
T3 construct: purchased in-house DSF (thermal shift) panel per Fedorov et al
The data set is described as follows: DSF thermal shift assay. It is filed as binding. Particulars: read-out: ΔTm. Here is the method: as §1

In a further data set the target is T4, DAPK1 (Homo sapiens, UniProt P53355).
T4 construct: purchased in-house DSF (thermal shift) panel per Fedorov et al
Briefly: DSF thermal shift assay. It is filed as binding. The conditions noted are these: read-out: ΔTm. Here is the method:
as §1

The target of another data set is T5, CAMKK2 (Homo sapiens, UniProt Q96RR4).
T5 construct: purchased in-house DSF (thermal shift) panel per Fedorov et al
T5 sequence (Q96RR4 whole entry): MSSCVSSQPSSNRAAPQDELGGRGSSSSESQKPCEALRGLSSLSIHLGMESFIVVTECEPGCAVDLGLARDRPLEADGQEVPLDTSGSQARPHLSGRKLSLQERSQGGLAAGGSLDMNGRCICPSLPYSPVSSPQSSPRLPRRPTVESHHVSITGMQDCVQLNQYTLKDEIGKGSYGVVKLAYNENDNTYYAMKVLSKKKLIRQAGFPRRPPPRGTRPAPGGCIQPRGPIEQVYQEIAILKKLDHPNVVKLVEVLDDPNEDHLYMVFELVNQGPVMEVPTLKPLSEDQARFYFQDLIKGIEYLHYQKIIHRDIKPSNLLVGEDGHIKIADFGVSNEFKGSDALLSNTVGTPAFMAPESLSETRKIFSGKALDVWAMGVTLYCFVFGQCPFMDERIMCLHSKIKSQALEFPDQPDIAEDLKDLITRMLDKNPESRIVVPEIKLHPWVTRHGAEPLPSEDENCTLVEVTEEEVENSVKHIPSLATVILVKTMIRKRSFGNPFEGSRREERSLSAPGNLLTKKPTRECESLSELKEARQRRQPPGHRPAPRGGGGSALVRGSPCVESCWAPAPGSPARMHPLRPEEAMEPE
The data set is described as follows: DSF thermal shift assay. Particulars: read-out: ΔTm. It is filed as binding. Here is the method:
as §1

In another data set the target is T6, STK10 (Homo sapiens, UniProt O94804).
T6 construct: purchased in-house DSF (thermal shift) panel per Fedorov et al
The data set is described as follows: DSF thermal shift assay. It is filed as binding. Particulars: read-out: ΔTm. Here is the method:
as §1

In a further data set the target is T7, CAMK4 (Homo sapiens, UniProt Q16566).
T7 construct: purchased in-house DSF (thermal shift) panel per Fedorov et al
The data set is described as follows: DSF thermal shift assay. The format is binding. The conditions noted are these: read-out: ΔTm. Here is the method:
as §1

The target of another data set is T8, DCAMKL1 (Homo sapiens, UniProt O15075).
T8 construct: purchased in-house DSF (thermal shift) panel per Fedorov et al
Briefly: DSF thermal shift assay. It is filed as binding. The conditions noted are these: read-out: ΔTm. Here is the method: as §1

Another data set concerns the target T9, SLK (Homo sapiens, UniProt Q9H2G2).
T9 construct: purchased in-house DSF (thermal shift) panel per Fedorov et al
Briefly: DSF thermal shift assay. The conditions noted are these: read-out: ΔTm. The format is binding. Here is the method:
as §1

The target in the next data set is T10, MAPK6 (Homo sapiens, UniProt Q16659).
T10 construct: purchased in-house DSF (thermal shift) panel per Fedorov et al
The data set is described as follows: DSF thermal shift assay. It is filed as binding. The conditions noted are these: read-out: ΔTm. The method, then:
as §1

A further data set has as its target T11, EPHA7 (Homo sapiens, UniProt Q15375).
T11 construct: purchased in-house DSF (thermal shift) panel per Fedorov et al
Briefly: DSF thermal shift assay. The conditions noted are these: read-out: ΔTm. The format is binding. The method, then:
as §1

A further data set concerns the target T12, EPHB3 (Homo sapiens, UniProt P54753).
T12 construct: purchased in-house DSF (thermal shift) panel per Fedorov et al
The data set is described as follows: DSF thermal shift assay. It is filed as binding. The conditions noted are these: read-out: ΔTm. Here is the method:
as §1

Another data set has as its target T13, OSR1 (Homo sapiens, UniProt O95747).
T13 construct: purchased in-house DSF (thermal shift) panel per Fedorov et al
The data set is described as follows: DSF thermal shift assay. The conditions noted are these: read-out: ΔTm. It is filed as binding. The method, then:
as §1

Another data set concerns the target T14, RPS6K5 (Homo sapiens, UniProt O75582).
T14 construct: purchased in-house DSF (thermal shift) panel per Fedorov et al
Briefly: DSF thermal shift assay. The format is binding. The conditions noted are these: read-out: ΔTm. Here is the method: as §1

A further data set has as its target T15, NEK2 (Homo sapiens, UniProt P51955).
T15 construct: purchased in-house DSF (thermal shift) panel per Fedorov et al
The data set is described as follows: DSF thermal shift assay. It is filed as binding. The conditions noted are these: read-out: ΔTm. Here is the method:
as §1

The next data set deals with T16, WNK1 (Homo sapiens, UniProt Q9H4A3).
T16 construct: purchased in-house DSF (thermal shift) panel per Fedorov et al
T16 sequence (Q9H4A3 whole entry): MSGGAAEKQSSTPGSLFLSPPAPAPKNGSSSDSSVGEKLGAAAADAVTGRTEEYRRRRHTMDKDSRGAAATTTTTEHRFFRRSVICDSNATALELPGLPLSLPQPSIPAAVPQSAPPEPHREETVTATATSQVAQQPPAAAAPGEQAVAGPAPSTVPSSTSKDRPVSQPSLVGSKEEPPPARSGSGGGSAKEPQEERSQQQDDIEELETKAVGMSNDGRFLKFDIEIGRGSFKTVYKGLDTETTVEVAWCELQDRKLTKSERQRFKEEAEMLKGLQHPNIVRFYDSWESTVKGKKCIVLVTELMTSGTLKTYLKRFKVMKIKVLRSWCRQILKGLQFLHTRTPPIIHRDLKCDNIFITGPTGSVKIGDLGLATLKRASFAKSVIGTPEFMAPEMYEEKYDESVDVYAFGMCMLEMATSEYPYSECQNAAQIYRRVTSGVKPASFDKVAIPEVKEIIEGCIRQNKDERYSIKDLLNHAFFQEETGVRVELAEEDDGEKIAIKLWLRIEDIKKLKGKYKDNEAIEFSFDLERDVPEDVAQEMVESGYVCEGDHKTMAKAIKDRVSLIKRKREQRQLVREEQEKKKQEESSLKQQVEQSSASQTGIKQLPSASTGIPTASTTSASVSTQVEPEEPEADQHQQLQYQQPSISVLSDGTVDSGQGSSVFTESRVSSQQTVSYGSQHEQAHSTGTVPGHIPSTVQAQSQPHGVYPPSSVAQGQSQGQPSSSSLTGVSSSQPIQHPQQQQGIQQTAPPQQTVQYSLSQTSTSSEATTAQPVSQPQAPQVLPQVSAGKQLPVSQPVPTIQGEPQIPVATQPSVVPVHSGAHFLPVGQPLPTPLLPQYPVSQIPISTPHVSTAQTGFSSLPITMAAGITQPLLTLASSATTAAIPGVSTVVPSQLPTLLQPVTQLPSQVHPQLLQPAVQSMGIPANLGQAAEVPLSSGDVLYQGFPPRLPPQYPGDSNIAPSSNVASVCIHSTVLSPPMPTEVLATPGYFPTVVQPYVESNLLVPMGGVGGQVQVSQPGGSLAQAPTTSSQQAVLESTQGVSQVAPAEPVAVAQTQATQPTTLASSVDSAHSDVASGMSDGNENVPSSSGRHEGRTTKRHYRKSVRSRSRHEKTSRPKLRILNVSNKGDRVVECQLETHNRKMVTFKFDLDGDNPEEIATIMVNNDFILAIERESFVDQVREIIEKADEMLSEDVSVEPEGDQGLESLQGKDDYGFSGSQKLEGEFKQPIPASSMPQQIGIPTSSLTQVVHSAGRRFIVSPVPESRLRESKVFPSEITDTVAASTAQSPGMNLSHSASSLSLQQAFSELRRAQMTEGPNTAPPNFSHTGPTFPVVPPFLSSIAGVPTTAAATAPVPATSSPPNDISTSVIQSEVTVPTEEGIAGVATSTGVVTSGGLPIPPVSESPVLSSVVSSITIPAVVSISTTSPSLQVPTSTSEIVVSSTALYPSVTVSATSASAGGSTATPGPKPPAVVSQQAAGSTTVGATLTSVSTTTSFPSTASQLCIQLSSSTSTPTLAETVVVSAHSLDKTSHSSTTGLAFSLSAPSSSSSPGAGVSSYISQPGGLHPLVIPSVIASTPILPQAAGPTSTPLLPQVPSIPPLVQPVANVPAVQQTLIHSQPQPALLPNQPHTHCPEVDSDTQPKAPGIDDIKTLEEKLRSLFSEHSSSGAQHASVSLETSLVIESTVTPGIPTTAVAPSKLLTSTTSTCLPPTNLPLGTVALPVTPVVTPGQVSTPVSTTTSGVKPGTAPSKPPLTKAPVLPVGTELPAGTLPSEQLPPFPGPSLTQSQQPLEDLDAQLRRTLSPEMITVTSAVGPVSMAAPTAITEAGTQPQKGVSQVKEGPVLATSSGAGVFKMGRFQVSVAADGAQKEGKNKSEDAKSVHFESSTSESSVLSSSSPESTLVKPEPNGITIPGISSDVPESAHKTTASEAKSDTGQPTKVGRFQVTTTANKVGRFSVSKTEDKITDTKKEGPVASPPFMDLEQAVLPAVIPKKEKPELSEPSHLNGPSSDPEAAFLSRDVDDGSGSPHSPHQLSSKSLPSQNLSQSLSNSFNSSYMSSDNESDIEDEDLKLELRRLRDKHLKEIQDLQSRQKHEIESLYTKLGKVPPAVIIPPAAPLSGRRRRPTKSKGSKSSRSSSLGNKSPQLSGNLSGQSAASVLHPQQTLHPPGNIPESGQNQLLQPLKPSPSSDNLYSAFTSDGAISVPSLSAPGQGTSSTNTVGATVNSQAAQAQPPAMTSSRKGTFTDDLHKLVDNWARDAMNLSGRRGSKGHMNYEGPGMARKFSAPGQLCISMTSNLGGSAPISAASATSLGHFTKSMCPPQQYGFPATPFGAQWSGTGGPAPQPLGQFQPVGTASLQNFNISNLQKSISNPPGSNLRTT
The data set is described as follows: DSF thermal shift assay. It is filed as binding. The conditions noted are these: read-out: ΔTm. Here is the method: as §1

The target of another data set is T17, MERTK (Homo sapiens, UniProt Q12866).
T17 construct: purchased in-house DSF (thermal shift) panel per Fedorov et al
Briefly: DSF thermal shift assay. It is filed as binding. The conditions noted are these: read-out: ΔTm. Here is the method:
as §1

The next data set deals with T18, CDC42BPA (Homo sapiens, UniProt Q5VT25).
T18 construct: purchased in-house DSF (thermal shift) panel per Fedorov et al
The data set is described as follows: DSF thermal shift assay. It is filed as binding. The conditions noted are these: read-out: ΔTm. The method, then: as §1

Another data set deals with T19, STK39 (Homo sapiens, UniProt Q9UEW8).
T19 construct: purchased in-house DSF (thermal shift) panel per Fedorov et al; IC50 follow-up at Reaction Biology Corp
The data set is described as follows: DSF thermal shift assay. It is filed as binding. The conditions noted are these: read-out: ΔTm. Here is the method: as §1

A further data set has as its target T20, PAK1 (Homo sapiens, UniProt Q13153).
T20 construct: purchased in-house DSF (thermal shift) panel per Fedorov et al
Briefly: DSF thermal shift assay. It is filed as binding. The conditions noted are these: read-out: ΔTm. Here is the method:
as §1

Data set [2] concerns S6K2. Also on record: method as in PMID 20704563. Particulars: cited from earlier work.
The subject of a further data set is S6K1. The conditions noted are these: cited from earlier work.
Data set [3] deals with T21, S6K2 (Homo sapiens, UniProt Q9UBS0).
T21 construct: purchased Reaction Biology Corp
Briefly: HotSpot kinase assay (Reaction Biology). The format is biochemical. The conditions noted are these: apparent IC50; five-point; compound 2 triplicate, ± standard deviation. Here is the method:
The provided IC50 values were measured using the HotSpot^TM Kinase Profiling assay and conducted at Reaction Biology Corp. in their facilities in Malvern, PA, USA.

A value given as a limit tells only on which side of the number the result lay.

T11 sequence (Q15375 28-998): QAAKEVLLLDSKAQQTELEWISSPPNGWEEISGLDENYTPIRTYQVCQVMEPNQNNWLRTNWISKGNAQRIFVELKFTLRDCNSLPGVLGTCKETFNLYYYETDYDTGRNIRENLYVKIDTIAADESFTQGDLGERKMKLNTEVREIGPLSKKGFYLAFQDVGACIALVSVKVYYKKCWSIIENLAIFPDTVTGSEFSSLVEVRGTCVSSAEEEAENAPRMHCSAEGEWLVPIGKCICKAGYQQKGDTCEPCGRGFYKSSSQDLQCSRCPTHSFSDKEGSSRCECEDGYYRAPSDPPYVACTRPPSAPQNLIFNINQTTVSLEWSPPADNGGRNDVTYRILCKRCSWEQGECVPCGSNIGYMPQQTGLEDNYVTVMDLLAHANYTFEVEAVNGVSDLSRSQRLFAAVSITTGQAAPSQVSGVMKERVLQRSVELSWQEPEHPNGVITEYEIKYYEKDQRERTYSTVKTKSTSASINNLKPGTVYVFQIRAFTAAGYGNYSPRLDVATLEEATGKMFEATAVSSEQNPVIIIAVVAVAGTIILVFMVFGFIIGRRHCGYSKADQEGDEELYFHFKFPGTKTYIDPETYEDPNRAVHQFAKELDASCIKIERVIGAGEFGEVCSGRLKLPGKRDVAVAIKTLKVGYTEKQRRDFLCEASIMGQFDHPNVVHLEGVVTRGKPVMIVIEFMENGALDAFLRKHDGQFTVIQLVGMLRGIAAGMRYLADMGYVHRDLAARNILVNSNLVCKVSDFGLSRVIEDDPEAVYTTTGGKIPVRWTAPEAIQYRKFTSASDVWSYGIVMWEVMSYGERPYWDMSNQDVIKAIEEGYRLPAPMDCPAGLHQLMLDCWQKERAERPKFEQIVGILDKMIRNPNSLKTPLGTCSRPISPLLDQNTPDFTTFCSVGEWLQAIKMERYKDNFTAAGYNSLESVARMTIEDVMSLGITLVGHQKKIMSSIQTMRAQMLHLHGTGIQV
T20 sequence (Q13153 whole entry): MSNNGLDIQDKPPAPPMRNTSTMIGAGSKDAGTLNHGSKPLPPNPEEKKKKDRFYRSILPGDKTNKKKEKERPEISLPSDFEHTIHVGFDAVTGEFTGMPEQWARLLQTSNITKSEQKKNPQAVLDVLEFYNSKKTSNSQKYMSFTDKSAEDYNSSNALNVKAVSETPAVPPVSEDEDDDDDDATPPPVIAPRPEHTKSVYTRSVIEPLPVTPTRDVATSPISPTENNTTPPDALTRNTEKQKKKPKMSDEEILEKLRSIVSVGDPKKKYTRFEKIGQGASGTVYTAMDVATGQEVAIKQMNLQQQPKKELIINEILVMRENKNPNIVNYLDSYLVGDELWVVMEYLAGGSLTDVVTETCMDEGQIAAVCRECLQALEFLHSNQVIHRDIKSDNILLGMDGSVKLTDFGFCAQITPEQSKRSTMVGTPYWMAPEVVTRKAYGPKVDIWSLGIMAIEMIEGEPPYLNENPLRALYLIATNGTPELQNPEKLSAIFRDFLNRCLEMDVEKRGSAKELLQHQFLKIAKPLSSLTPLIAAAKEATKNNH

For the compound `CN(C)C/C=C/C(=O)Nc1cc2c(Nc3ccc(F)c(Cl)c3)ncnc2cc1O[C@H]1CCOC1` [Afatinib], in [1], the half-life (as a rule, the time in which the quantity being followed falls by half) at […] was 5 h.

As to `CN[C@@H]1C[C@H]2O[C@@](C)([C@@H]1OC)n1c3ccccc3c3c4c(c5c6ccccc6n2c5c31)C(=O)NC4` [Staurosporine, reference compound], the ΔTm (in general, the shift of the melting midpoint relative to a reference) at 10 µM at MAPK13 was found to be 6.2 °C; at STK3 it was 14.8 °C; on PLK4 it was 19 °C; at DAPK1 it was 9.6 °C; on CAMKK2, 25.1 °C; on STK10, 24.4 °C. The ΔTm at 10 µM at CAMK4 was 8.9 °C; on DCAMKL1, 6.3 °C; at SLK it was 20.8 °C; at MAPK6 it was 1 °C; at EPHA7, 12.7 °C; at EPHB3 it was 6.7 °C. For the same compound, the ΔTm at 10 µM on OSR1 amounted to 7.6 °C; at RPS6K5 it was 15 °C; on NEK2, 2.2 °C; at WNK1 it was 1.4 °C; on MERTK it was 5.9 °C; at CDC42BPA, 2.2 °C. The ΔTm at 10 µM on STK39 is 9.3 °C; on PAK1, 7.4 °C.

Take `CCc1cncnc1N1CCN(Cc2nc3ccc(C(F)(F)F)cc3[nH]2)CC1` [PF-4708671]: the 50% inhibitory concentration (IC50) (usually the point on the concentration scale where inhibition reaches its midpoint) in the data set on S6K2 [2] is 65000 nM; with S6K1, 160 nM. Moreover, the Ki (usually the equilibrium dissociation constant of an inhibitor or competing ligand from its target) at S6K1 is 20 nM.

For `CCc1cnc(Nc2ncccc2[N+](=O)[O-])nc1N1CCN(Cc2nc3cc(C(F)(F)F)ccc3[nH]2)CC1` [Compound 21], at S6K2 [3], the IC50 was over 5000 nM.

These data come from publication PMC8534050, “Discovery of a Potent and Highly Isoform-Selective Inhibitor of the Neglected Ribosomal Protein S6 Kinase Beta 2 (S6K2)” (Cancers, 2021).
